Laboratory results published in ChEMBL document CHEMBL3734728, “2,30-Bis(10H-indole) heterocycles: New p53/MDM2/MDMX antagonists” (Bioorg Med Chem Lett, 2015).

Experiments:
Protein Mdm4 = molecular target: T1, Protein Mdm4 (Homo sapiens, UniProt O15151)
T1 sequence (O15151 whole entry): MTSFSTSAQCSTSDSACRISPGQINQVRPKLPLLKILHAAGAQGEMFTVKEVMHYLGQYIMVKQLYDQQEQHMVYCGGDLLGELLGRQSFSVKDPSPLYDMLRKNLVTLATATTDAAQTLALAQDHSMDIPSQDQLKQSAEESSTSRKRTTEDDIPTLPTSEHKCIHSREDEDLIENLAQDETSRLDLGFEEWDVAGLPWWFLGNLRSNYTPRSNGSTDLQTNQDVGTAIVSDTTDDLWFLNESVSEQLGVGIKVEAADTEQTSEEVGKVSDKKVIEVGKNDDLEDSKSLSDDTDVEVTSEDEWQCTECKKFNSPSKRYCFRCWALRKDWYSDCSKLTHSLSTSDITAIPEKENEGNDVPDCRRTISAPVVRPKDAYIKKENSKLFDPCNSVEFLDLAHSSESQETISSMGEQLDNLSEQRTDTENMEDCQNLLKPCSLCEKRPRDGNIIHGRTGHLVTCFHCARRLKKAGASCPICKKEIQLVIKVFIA

[1] = Lipophilicity, logP of the compound; format: physicochemical; conditions: octanol/water
[2] = molecular target: E3 ubiquitin-protein ligase Mdm2 (Homo sapiens, UniProt Q00987)
E3 ubiquitin-protein ligase Mdm2, sequence (Q00987 whole entry): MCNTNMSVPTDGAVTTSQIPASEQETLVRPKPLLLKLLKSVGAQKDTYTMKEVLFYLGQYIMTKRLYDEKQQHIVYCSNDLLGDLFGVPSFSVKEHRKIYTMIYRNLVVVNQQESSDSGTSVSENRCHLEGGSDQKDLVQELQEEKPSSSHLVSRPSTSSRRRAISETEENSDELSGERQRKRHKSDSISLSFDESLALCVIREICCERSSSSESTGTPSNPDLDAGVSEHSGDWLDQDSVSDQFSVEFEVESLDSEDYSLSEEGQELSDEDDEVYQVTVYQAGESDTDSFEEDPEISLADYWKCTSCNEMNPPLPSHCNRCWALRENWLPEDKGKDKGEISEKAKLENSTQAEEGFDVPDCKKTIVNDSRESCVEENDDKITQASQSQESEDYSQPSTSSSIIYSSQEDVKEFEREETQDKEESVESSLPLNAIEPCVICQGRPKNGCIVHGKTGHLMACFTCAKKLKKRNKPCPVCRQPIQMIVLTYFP

**Q.** With `CCOC(=O)c1[nH]c2cc(Cl)ccc2c1-c1c(-c2ccc(Cl)cc2)c2ccccc2n1Cc1ccc(Cl)cc1` as the compound, how does the Ki (Protein Mdm4) read?
**A.** Its Ki is over 60 µM.

**Q.** And the logP [1]?
**A.** Its logP is 8.38.

**Q.** What about the Ki [2] of the same compound?
**A.** The Ki was over 22 µM.

**Q.** With `O=C(O)c1[nH]c2cc(Cl)ccc2c1-c1c(-c2ccc(F)cc2)c2ccccc2n1Cc1ccc(Cl)cc1` as the compound, how does the logP [1] read?
**A.** Its logP is 7.38.

**Q.** With `O=C(NCCN1CCOCC1)c1[nH]c2cc(Cl)ccc2c1-c1c(-c2ccccc2)c2ccccc2n1Cc1ccc(Cl)cc1` as the compound, how does the logP [1] read?
**A.** Its logP is 6.4.

**Q.** Which logP [1] does the source give for `CCOC(=O)c1[nH]c2cc(Cl)ccc2c1-c1c(-c2ccccc2)c2ccccc2n1Cc1ccc(Cl)cc1` here?
**A.** Its logP is 7.82.

**Q.** With `Clc1ccc(Cn2c(-c3c[nH]c4cc(Cl)ccc34)c(-c3ccccc3)c3ccccc32)cc1` as the compound, how does the logP [1] read?
**A.** The logP was 7.61.

**Q.** For `CCOC(=O)c1[nH]c2cc(Cl)ccc2c1-c1c(-c2ccc(F)cc2)c2ccccc2n1Cc1ccc(Cl)cc1`, which logP [1] is on record?
**A.** Its logP is 7.98.

**Q.** For `O=C(O)c1[nH]c2cc(Cl)ccc2c1-c1c(-c2ccccc2)c2ccccc2n1Cc1ccc(Cl)cc1`, which logP [1] is on record?
**A.** Its logP is 7.22.
